Experimental data as given in patent publication US20110046040A1, “Microorganism-inactivating agent” (CHISSO CORPORATION, priority 2009, published 2011).

Legend:
Assay type in all cases: cell-based
Bacillus cereus = assay: inactivation of microorganisms in water, number of cells in supernatant
Description: (§1) Each test microbe was inoculated to nutrient broth and cultured with shaking at the optimum temperature of the test microbe until the late logarithmic phase. From the microbe culture, the microbe was collected, and the collected microbe was washed with 1.5 mL of physiological saline 2 to 3 times (centrifugation at 13000 rpm for 1 minute) and suspended in 1.5 mL of physiological saline. From the suspension, a 1 mL aliquot was recovered, and this was added to 9 mL of sterile water, followed by sufficient stirring of the resulting suspension (this was used as 10^−1 dilution). From the 10^−1 dilution, 10^−2 to 10^−8 dilutions were sequentially prepared. Each dilution was smeared on a film medium (Sanita-kun; for E. coli and coliform bacteria, for Staphylococcus aureus, for Salmonella, for aerobic bacteria or for fungi: Chisso Corporation) in an amount of 1 mL, followed by culturing at the optimum temperature of the test microbe for 24 to 72 hours and measurement of the number of cells on the film medium.
(§2) To a sterilized beaker, 500 mL of sterilized water was placed, and 0.20 mL of microbe culture of 10^6 to 10^10 cells/mL was inoculated thereto, to attain an initial cell number of 10^3 to 10^7 cells/mL. Unless otherwise specified, the pH was 6 to 8. After stirring the suspension gently for 5 minutes, PGα21Ca (Nippon Poly-Glu Co., Ltd.) and/or a microbiostatic agent or microbicide was/were added thereto such that a predetermined final concentration(s) was/were attained. After gentle stirring at room temperature for 10 to 15 minutes, the suspension was left to stand for a predetermined length of time. The supernatant was collected and diluted appropriately in an antimicrobial agent-inactivating medium (BHI medium or the like), and 1 mL each of the resulting diluent was smeared on a film medium. Culturing was carried out at the optimum temperature of each test microbe for 24 to 72 hours and the number of cells (cells/mL) on the film medium was measured.

Bacillus subtilis = assay: as above
Description: as §1, §2

Escherichia coli [1] = assay: as above
Description: as §1, §2

Klebsiella pneumoniae = assay: as above
Description: as §1, §2

Listeria monocytogenes = assay: as above
Description: as §1, §2

Pseudomonas aeruginosa = assay: as above
Description: as §1, §2

Salmonella choleraesuis = assay: as above
Description: as §1, §2

Staphylococcus aureus [2] = assay: as above
Description: as §1, §2

Escherichia coli [3] = assay: inactivation with further addition of the microorganism after predetermined periods; conditions: ε-poly-L-lysine 5 ppm
Description: as §1, §2
(§3) (3) The inactivation effect of ε-poly-L-lysine, which is a microbicide related to the microorganism-inactivating agent of the present invention, upon its single application to water containing Escherichia coli, Salmonella or Staphylococcus, followed by further addition of the respective microorganisms after predetermined periods of time was studied. The addition of the microorganisms was carried out at 24, 48, 72 and 144 hours after sampling. ε-poly-L-lysine was added at a concentration of 5 ppm. […]

Staphylococcus aureus [4] = assay: as above; conditions: ε-poly-L-lysine 5 ppm
Description: as §1, §2, §3

[5] = ε-poly-L-lysine 10 ppm, 0 minute later 7.5 × 10^4
[6] = ε-poly-L-lysine 10 ppm, 0 minute later 2.9 × 10^4
[7] = ε-poly-L-lysine 5 ppm, initial 3.2 × 10^7
[8] = ε-poly-L-lysine 10 ppm, 0 minute later 2.5 × 10^6
[9] = ε-poly-L-lysine 10 ppm, initial 3.2 × 10^7
[10] = ε-poly-L-lysine 10 ppm, 0 minute later 3.3 × 10^5
[11] = ε-poly-L-lysine 10 ppm, 0 minute later 8.1 × 10^4
[12] = ε-poly-L-lysine 10 ppm, 0 minute later 6.2 × 10^5
[13] = ε-poly-L-lysine 5 ppm, initial 1.2 × 10^7
[14] = ε-poly-L-lysine 10 ppm, 0 minute later 3.2 × 10^5
[15] = ε-poly-L-lysine 10 ppm, initial 1.2 × 10^7
[16] = ε-poly-L-lysine 10 ppm, 0 minute later 2.3 × 10^4
[17] = further addition of microbe at 24 h (1.3 × 10^8)
[18] = further addition of microbe at 48 h (5.0 × 10^6)
[19] = further addition of microbe at 72 h (6.6 × 10^6)
[20] = further addition of microbe at 144 h (1.2 × 10^7)
[21] = further addition of microbe at 24 h (2.2 × 10^7)
[22] = further addition of microbe at 48 h (1.4 × 10^6)
[23] = further addition of microbe at 72 h (6.1 × 10^6)
[24] = further addition of microbe at 144 h (7.9 × 10^6)

## ε-poly-L-lysine
Bacillus cereus; 10 ppm, pH 8, initial 9.5 × 10^4
  number of cells 2 hours later: 290 cells/mL
Bacillus cereus; [5]
  number of cells 5 minutes later: 140 cells/mL
  number of cells 15 minutes later: 110 cells/mL
  number of cells 60 minutes later: 80 cells/mL
  number of cells 120 minutes later: <10 cells/mL
Bacillus subtilis; 10 ppm, pH 8, initial 6.0 × 10^4
  number of cells 2 hours later: <10 cells/mL
Bacillus subtilis; [6]
  number of cells 5 minutes later: 4 × 10^3 cells/mL
  number of cells 15 minutes later: 30 cells/mL
  number of cells 60 minutes later: <10 cells/mL
  number of cells 120 minutes later: <10 cells/mL
Escherichia coli [1]; 10 ppm, pH 8, initial 5.8 × 10^4
  number of cells 2 hours later: <10 cells/mL
Escherichia coli [1]; [7]
  number of cells 0.5 hour later: 3.2 × 10^3 cells/mL
  number of cells 1 hour later: <10 cells/mL
  number of cells 2 hours later: <10 cells/mL
Escherichia coli [1]; [8]
  number of cells 5 minutes later: 1.32 × 10^4 cells/mL
  number of cells 15 minutes later: 10 cells/mL
  number of cells 60 minutes later: <10 cells/mL
  number of cells 120 minutes later: <10 cells/mL
Escherichia coli [1]; [9]
  number of cells 0.5 hour later: 300 cells/mL
  number of cells 1 hour later: <10 cells/mL
  number of cells 2 hours later: <10 cells/mL
Klebsiella pneumoniae; 10 ppm, pH 8, initial 1.3 × 10^5
  number of cells 2 hours later: <10 cells/mL
Klebsiella pneumoniae; [10]
  number of cells 5 minutes later: 1.8 × 10^4 cells/mL
  number of cells 15 minutes later: 1.87 × 10^3 cells/mL
  number of cells 60 minutes later: 10 cells/mL
  number of cells 120 minutes later: <10 cells/mL
Listeria monocytogenes; 10 ppm, pH 8, initial 2.0 × 10^4
  number of cells 2 hours later: <10 cells/mL
Listeria monocytogenes; [11]
  number of cells 5 minutes later: 780 cells/mL
  number of cells 15 minutes later: 40 cells/mL
  number of cells 60 minutes later: 20 cells/mL
  number of cells 120 minutes later: <10 cells/mL
Pseudomonas aeruginosa; 10 ppm, pH 8, initial 2.0 × 10^5
  number of cells 2 hours later: <10 cells/mL
Pseudomonas aeruginosa; [12]
  number of cells 5 minutes later: 2.16 × 10^4 cells/mL
  number of cells 15 minutes later: 240 cells/mL
  number of cells 60 minutes later: 20 cells/mL
  number of cells 120 minutes later: <10 cells/mL
Salmonella choleraesuis; 10 ppm, pH 8, initial 4.7 × 10^4
  number of cells 2 hours later: <10 cells/mL
Salmonella choleraesuis; [13]
  number of cells 0.5 hour later: 50 cells/mL
  number of cells 1 hour later: 20 cells/mL
  number of cells 2 hours later: <10 cells/mL
Salmonella choleraesuis; [14]
  number of cells 5 minutes later: 480 cells/mL
  number of cells 15 minutes later: 1.4 × 10^3 cells/mL
  number of cells 60 minutes later: 120 cells/mL
  number of cells 120 minutes later: <10 cells/mL
Salmonella choleraesuis; [15]
  number of cells 0.5 hour later: <10 cells/mL
  number of cells 1 hour later: <10 cells/mL
  number of cells 2 hours later: <10 cells/mL
Staphylococcus aureus [2]; 10 ppm, pH 8, initial 4.3 × 10^4
  number of cells 2 hours later: <10 cells/mL
Staphylococcus aureus [2]; [13]
  number of cells 0.5 hour later: 4.0 × 10^4 cells/mL
  number of cells 1 hour later: 2.2 × 10^4 cells/mL
  number of cells 2 hours later: 4.2 × 10^3 cells/mL
Staphylococcus aureus [2]; [16]
  number of cells 5 minutes later: 8.1 × 10^3 cells/mL
  number of cells 15 minutes later: 2.55 × 10^3 cells/mL
  number of cells 60 minutes later: 2 × 10^3 cells/mL
  number of cells 120 minutes later: 440 cells/mL
Staphylococcus aureus [2]; [15]
  number of cells 0.5 hour later: 5.0 × 10^4 cells/mL
  number of cells 1 hour later: 7.0 × 10^3 cells/mL
  number of cells 2 hours later: 4.8 × 10^3 cells/mL
Escherichia coli [3]; [17]
  number of cells, elapsed time 26 hours: <10 cells/mL
  number of cells, elapsed time 28 hours: <10 cells/mL
  number of cells, elapsed time 48 hours: <10 cells/mL
Escherichia coli [3]; [18]
  number of cells, elapsed time 50 hours: <10 cells/mL
  number of cells, elapsed time 52 hours: <10 cells/mL
  number of cells, elapsed time 72 hours: <10 cells/mL
Escherichia coli [3]; [19]
  number of cells, elapsed time 74 hours: <10 cells/mL
  number of cells, elapsed time 76 hours: <10 cells/mL
  number of cells, elapsed time 96 hours: <10 cells/mL
  number of cells, elapsed time 144 hours: <10 cells/mL
Escherichia coli [3]; [20]
  number of cells, elapsed time 146 hours: <10 cells/mL
  number of cells, elapsed time 148 hours: <10 cells/mL
  number of cells, elapsed time 168 hours: <10 cells/mL
Escherichia coli [3]; initial 1.0 × 10^6
  number of cells, elapsed time 2 hours: <10 cells/mL
  number of cells, elapsed time 4 hours: <10 cells/mL
  number of cells, elapsed time 24 hours: <10 cells/mL
Staphylococcus aureus [4]; [21]
  number of cells, elapsed time 26 hours: 2.2 × 10^6 cells/mL
  number of cells, elapsed time 28 hours: 2.1 × 10^5 cells/mL
  number of cells, elapsed time 48 hours: <10 cells/mL
Staphylococcus aureus [4]; [22]
  number of cells, elapsed time 50 hours: 2.5 × 10^4 cells/mL
  number of cells, elapsed time 52 hours: 1.2 × 10^4 cells/mL
  number of cells, elapsed time 72 hours: <10 cells/mL
Staphylococcus aureus [4]; [23]
  number of cells, elapsed time 74 hours: 1.7 × 10^3 cells/mL
  number of cells, elapsed time 76 hours: 20 cells/mL
  number of cells, elapsed time 96 hours: <10 cells/mL
  number of cells, elapsed time 144 hours: <10 cells/mL
Staphylococcus aureus [4]; [24]
  number of cells, elapsed time 146 hours: 1.0 × 10^3 cells/mL
  number of cells, elapsed time 148 hours: 90 cells/mL
  number of cells, elapsed time 168 hours: <10 cells/mL
Staphylococcus aureus [4]; initial 2.0 × 10^6
  number of cells, elapsed time 2 hours: <10 cells/mL
  number of cells, elapsed time 4 hours: <10 cells/mL
  number of cells, elapsed time 24 hours: <10 cells/mL
